According to paper PMC2935147 (Journal of medicinal chemistry, 2010):
Where a name gives a salt, the structure may show the parent alone. Read-outs that look alike come from different tables or passages of the source.

How the values were obtained:
human P2Y6 receptor [1] = biological target: T1, human P2Y6 receptor (Homo sapiens, UniProt Q15077); settings: cited from earlier work
human P2Y14 receptor = settings: read-out: EC50 at the P2Y14 receptor; cited from earlier work
human P2Y6 receptor [2] = biological target: T1, human P2Y6 receptor; format: cell-based
human P2Y6 receptor [3] = biological target: T1, human P2Y6 receptor; assay: PLC activation; format: cell-based; settings: for activity at the P2Y6 receptor: 1321N1 cells; for Pharmacological properties at hP2Y6 receptor: summary in words, Table 4
human P2Y2 receptor [4] = biological target: T2, human P2Y2 receptor (Homo sapiens, UniProt P41231); assay: PLC activation; format: cell-based
T2 sequence (P41231 whole entry): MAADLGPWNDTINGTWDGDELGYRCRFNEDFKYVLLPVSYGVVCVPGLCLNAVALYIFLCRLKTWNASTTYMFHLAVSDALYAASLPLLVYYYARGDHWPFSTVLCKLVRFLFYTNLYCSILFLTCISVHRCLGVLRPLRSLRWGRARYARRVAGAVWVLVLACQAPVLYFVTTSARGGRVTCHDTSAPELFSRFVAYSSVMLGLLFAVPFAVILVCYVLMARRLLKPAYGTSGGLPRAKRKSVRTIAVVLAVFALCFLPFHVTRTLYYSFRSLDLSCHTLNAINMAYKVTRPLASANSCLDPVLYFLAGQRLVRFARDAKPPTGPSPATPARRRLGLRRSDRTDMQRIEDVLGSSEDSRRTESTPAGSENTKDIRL

human P2Y2 receptor [5] = biological target: T2, human P2Y2 receptor; settings: read-out: EC50 hP2Y2; ref Kim et al.[26]; cited from earlier work
human P2Y4 receptor = human P2Y4 receptor (Homo sapiens, UniProt P51582); settings: read-out: EC50 hP2Y4; ref Kim et al.[26]; cited from earlier work
Chain of human P2Y4 receptor (P51582 whole entry): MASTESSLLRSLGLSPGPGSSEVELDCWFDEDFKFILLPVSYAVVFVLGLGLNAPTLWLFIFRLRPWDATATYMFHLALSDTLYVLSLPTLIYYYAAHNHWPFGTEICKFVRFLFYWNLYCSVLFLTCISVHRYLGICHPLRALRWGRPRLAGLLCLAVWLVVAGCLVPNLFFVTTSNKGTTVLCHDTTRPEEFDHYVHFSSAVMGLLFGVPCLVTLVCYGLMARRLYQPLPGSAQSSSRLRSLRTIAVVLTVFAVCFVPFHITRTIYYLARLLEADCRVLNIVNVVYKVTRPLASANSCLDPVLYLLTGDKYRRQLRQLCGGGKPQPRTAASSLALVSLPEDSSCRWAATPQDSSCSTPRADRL

[6] = Stability in acidic aqueous solution; format: physicochemical; settings: HCl buffer (pH 1.2)
[7] = ratio of EC50 values, PLC activation

T1 sequence (Q15077 whole entry): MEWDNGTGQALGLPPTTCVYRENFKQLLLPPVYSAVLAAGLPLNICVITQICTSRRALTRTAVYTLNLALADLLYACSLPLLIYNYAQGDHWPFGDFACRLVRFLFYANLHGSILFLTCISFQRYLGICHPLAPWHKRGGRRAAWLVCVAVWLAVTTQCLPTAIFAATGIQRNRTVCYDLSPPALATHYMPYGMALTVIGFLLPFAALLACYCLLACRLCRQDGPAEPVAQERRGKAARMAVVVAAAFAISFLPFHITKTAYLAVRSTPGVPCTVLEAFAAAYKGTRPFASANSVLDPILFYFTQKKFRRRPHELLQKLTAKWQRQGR

SMILES: Nc1ccn([C@@H]2O[C@H](COP(=O)(O)OP(=O)(O)O)[C@@H](O)[C@H]2O)c(=O)n1 [CDP]
- activity at the human P2Y6 receptor (human P2Y6 receptor [1]): nearly inactive
- EC50 (human P2Y14 receptor): > 10000 nM

SMILES: O=c1ccn([C@@H]2O[C@H](COP(=O)(O)OP(=O)(O)O)[C@@H](O)[C@H]2O)c(=O)[nH]1 [Compound 1, uridine-5′-diphosphate]
- EC50 (human P2Y6 receptor [2]): 200 nM

SMILES: O=c1[nH]c(=O)n([C@@H]2O[C@H](COP(=O)(O)OP(=O)(O)O)[C@@H](O)[C@H]2O)cc1I [Compound 3, 5-iodo-UDP]
- EC50 (human P2Y6 receptor [2]): 50 nM

SMILES: N.O=c1ccn([C@@]23C[C@H]2[C@H](COP(=O)(O)OP(=O)(O)O)[C@@H](O)[C@H]3O)c(=O)[nH]1 [Compound 7, (S)-Methanocarba-uridine-5′-diphosphate triethylammonium salt]
- gain of potency at the P2Y6 receptor over (S)-methanocarba-2′-deoxy-UDP 6 (human P2Y6 receptor [3]; ratio of EC50 values): 5 fold
- gain of potency at the P2Y6 receptor over UDP 1 (human P2Y6 receptor [3]; ratio of EC50 values): 7 fold

SMILES: O=c1ccn([C@H]2[C@H](O)[C@H](O)[C@@]3(COP(=O)(O)OP(=O)(O)O)C[C@H]23)c(=O)[nH]1 [Compound 8, (N)-methanocarba UDP]
- activity at the P2Y6 receptor (human P2Y6 receptor [1]; previously found): inactive

SMILES: CCN(CC)CC.O=c1ccn([C@@]23C[C@H]2[C@@H]2COP(=O)(O)OP(=O)(O)O[C@H]2[C@H]3O)c(=O)[nH]1 [Compound 9, (S)-Methanocarba-uridine-3′, 5′-cyclic diphosphate triethylammonium salt]
- activity at the P2Y6 receptor (human P2Y6 receptor [3]; PLC activation): inactive

SMILES: CCN(CC)CC.CO/N=c1/ccn([C@@H]2O[C@H](COP(=O)(O)OP(=O)(O)O)[C@@H](O)[C@H]2O)c(=O)[nH]1 [Compound 12, N^4-Methoxycytidine-5′-diphosphate ammonium salt]
- selectivity P2Y6 versus P2Y14 receptor (human P2Y6 receptor [3]; PLC via P2Y6 versus inhibition of cyclic AMP accumulation in HEK-293 cells expressing hP2Y14): 47 fold
- gain of potency at the P2Y6 receptor over UDP 1 (human P2Y6 receptor [3]; ratio of EC50 values): 4 fold
- selectivity P2Y6 versus P2Y2 receptor (human P2Y6 receptor [3]; [7]): 51 fold
- Pharmacological properties at hP2Y6 receptor (human P2Y6 receptor [3]): selective, potent agonist

SMILES: CCO/N=c1/ccn([C@@H]2O[C@H](COP(=O)(O)OP(=O)(O)O)[C@@H](O)[C@H]2O)c(=O)[nH]1 [Compound 13, N^4-Ethoxycytidine-5′-diphosphate ammonium salt]
- EC50 (human P2Y6 receptor [3]): 104 ± 23 nM

SMILES: CC(C)(C)O/N=c1/ccn([C@@H]2O[C@H](COP(=O)(O)OP(=O)(O)O)[C@@H](O)[C@H]2O)c(=O)[nH]1 [Compound 14, N^4-t-Butyloxycytidine-5′-diphosphate ammonium salt]
- EC50 (human P2Y6 receptor [3]): 2550 ± 700 nM

SMILES: CCN(CC)CC.O=c1[nH]/c(=N\OCc2ccccc2)ccn1[C@@H]1O[C@H](COP(=O)(O)OP(=O)(O)O)[C@@H](O)[C@H]1O [Compound 15, N^4-Benzyloxycytidine-5′-diphosphate ammonium salt]
- Pharmacological properties at hP2Y6 receptor (human P2Y6 receptor [3]): selective, potent agonist

SMILES: CO/N=c1/ccn([C@@H]2O[C@H](COP(=O)(O)CP(=O)(O)O)[C@@H](O)[C@H]2O)c(=O)[nH]1 [Compound 16, N^4-Methoxycytidine-5′-α,β-methylenediphosphate triethylammonium salt]
- EC50 (human P2Y2 receptor [4]): > 10000 nM
- EC50 (human P2Y6 receptor [3]): 678 ± 18 nM

SMILES: O=c1ccn([C@@H]2O[C@H](COP(=O)(O)OP(=O)(O)OP(=O)(O)O)[C@@H](O)[C@H]2O)c(=O)[nH]1 [Compound 17, uridine-5′-triphosphate, reference compound]
- Pharmacological properties at hP2Y6 receptor (human P2Y6 receptor [3]): ~inactive

SMILES: O=c1ccn(C2C(O)C(O)C3(COP(=O)(O)OP(=O)(O)OP(=O)(O)O)CC23)c(=O)[nH]1 (stereo not drawn) [Compound 19, (N)-methanocarba UTP]
- EC50 (human P2Y6 receptor [1]; read-out: EC50 hP2Y6, NE = no effect at 10 μM, ref Kim et al.[26]): > 10000 nM
- EC50 (human P2Y2 receptor [5]): 16 ± 7 nM
- EC50 (human P2Y4 receptor): 85 ± 5 nM

SMILES: CCN(CC)CC.CO/N=c1\ccn([C@@H]2O[C@H](COP(=O)(O)OP(=O)(O)OP(=O)(O)O)[C@@H](O)[C@H]2O)c(=O)[nH]1 [Compound 20, N^4-Methoxycytidine-5′-triphosphate ammonium salt]
- gain of potency at the P2Y6 receptor over UTP 17 (human P2Y6 receptor [3]; ratio of EC50 values): > 100 fold

SMILES: O=c1ccn([C@@H]2O[C@H](COP(=O)(O)OP(=O)(O)OP(=O)(O)OC[C@H]3O[C@@H](n4ccc(=O)[nH]c4=O)[C@H](O)[C@@H]3O)[C@@H](O)[C@H]2O)c(=O)[nH]1 [Compound 21, Up3U]
- EC50 (human P2Y6 receptor [2]): 370 nM
- half-life at 0.2 mg/mL [6]: 218 h
- Pharmacological properties at hP2Y6 receptor (human P2Y6 receptor [3]): moderately potent agonist, only 4-5 fold selective

SMILES: CCN(CC)CC.O=c1ccn([C@@H]2O[C@H](COP(=O)(O)CP(=O)(O)OP(=O)(O)OC[C@H]3O[C@@H](n4ccc(=O)[nH]c4=O)[C@H](O)[C@@H]3O)[C@@H](O)[C@H]2O)c(=O)[nH]1 [Compound 22, P^1,P^3-Di(uridine-5′-)α,β-methylenetriphosphate triethylammonium salt]
- reduction of P2Y6 receptor potency relative to Up3U 21 (human P2Y6 receptor [3]; ratio of EC50 values): 5 fold
- Pharmacological properties at hP2Y6 receptor (human P2Y6 receptor [3]): weak agonist, selective

SMILES: CCN(CC)CC.CO/N=c1/ccn([C@@H]2O[C@H](COP(=O)(O)OP(=O)(O)OP(=O)(O)OC[C@H]3O[C@@H](n4ccc(=O)[nH]c4=O)[C@H](O)[C@@H]3O)[C@@H](O)[C@H]2O)c(=O)[nH]1 [Compound 23, N^4-methoxy-Cp3U]
- EC50 (human P2Y6 receptor [2]): 83 nM
- enhancement of P2Y6 receptor potency relative to Up3U 21 (human P2Y6 receptor [3]; ratio of EC50 values): 22 fold
- Pharmacological properties at hP2Y6 receptor (human P2Y6 receptor [3]): selective, potent agonist

SMILES: CONc1ccn([C@@H]2O[C@H](COP(=O)(O)OP(=O)(O)OP(=O)(O)OC[C@H]3O[C@@H](n4ccc(NOC)nc4=O)[C@H](O)[C@@H]3O)[C@@H](O)[C@H]2O)c(=O)n1 [Compound 24, N^4-OMe-Cp3(N^4-OMe)C]
- EC50 (human P2Y6 receptor [2]): 630 nM

SMILES: CCN(CC)CC.O=c1ccn([C@@H]2O[C@H](COP(=O)(O)OP(=O)(O)OP(=O)(O)OC3CCCCC3)[C@@H](O)[C@H]2O)c(=O)[nH]1 [Compound 25, P^1-Uridine-5′-P^3-cyclohexyl-triphosphate triethylammonium salt]
- Pharmacological properties at hP2Y6 receptor (human P2Y6 receptor [3]): weak agonist, nonselective vs. P2Y2 receptor

SMILES: CCN(CC)CC.O=c1ccn([C@@H]2O[C@H](COP(=O)(O)OP(=O)(O)OP(=O)(O)Oc3ccccc3)[C@@H](O)[C@H]2O)c(=O)[nH]1 [Compound 26, P^1-Uridine-5′-P^3-phenyl-triphosphate triethylammonium salt]
- Pharmacological properties at hP2Y6 receptor (human P2Y6 receptor [3]): weak agonist, selective

SMILES: CCN(CC)CC.O=c1ccn([C@@H]2O[C@H](COP(=O)(O)OP(=O)(O)OP(=O)(O)O[C@H]3O[C@H](CO)[C@@H](O)[C@H](O)[C@H]3O)[C@@H](O)[C@H]2O)c(=O)[nH]1 [Compound 27, P^1-Uridine-5′-P^3-[1]glucose-1′-triphosphate triethylammonium salt]
- activity at the P2Y6 receptor (human P2Y6 receptor [3]; PLC activation): only weakly activated
- activity at the P2Y6 receptor (human P2Y6 receptor [3]; PLC activation, listed as UTP-glucose): inactive
- Pharmacological properties at hP2Y6 receptor (human P2Y6 receptor [3]): ~inactive

SMILES: CCN(CC)CC.O=C(Cn1c(=O)ccn([C@@H]2O[C@H](COP(=O)(O)OP(=O)(O)OP(=O)(O)O[C@H]3O[C@H](CO)[C@@H](O)[C@H](O)[C@H]3O)[C@@H](O)[C@H]2O)c1=O)c1ccccc1 [Compound 30, 3-Phenacyluridine-5′-glucose-1′-triphosphate triethylammonium salt]
- activity at the P2Y6 receptor (human P2Y6 receptor [3]; PLC activation): only weakly active

SMILES: CCN(CC)CC.O=c1ccn([C@@H]2O[C@H](COP(=O)(O)CP(=O)(O)OP(=O)(O)O[C@H]3O[C@H](CO)[C@@H](O)[C@H](O)[C@H]3O)[C@@H](O)[C@H]2O)c(=O)[nH]1 [Compound 31, Uridine-5′-glucose-1′-α,β-methylenetriphosphate triethylammonium salt]
- activity at the P2Y6 receptor (human P2Y6 receptor [3]; PLC activation): only weakly active
- Pharmacological properties at hP2Y6 receptor (human P2Y6 receptor [3]): ~inactive

SMILES: CCN(CC)CC.CO/N=c1/ccn([C@@H]2O[C@H](COP(=O)(O)OP(=O)(O)OP(=O)(O)O[C@H]3O[C@H](CO)[C@@H](O)[C@H](O)[C@H]3O)[C@@H](O)[C@H]2O)c(=O)[nH]1 [Compound 32, N^4-Methoxycytidine-5′-glucose-1′-triphosphate triethylammonium salt]
- selectivity P2Y6 versus P2Y2 receptor (human P2Y6 receptor [3]; [7]): > 100 fold
- selectivity P2Y6 versus P2Y4 receptor (human P2Y6 receptor [3]; [7]): > 100 fold

SMILES: CCN(CC)CC.CO/N=c1/ccn([C@@H]2O[C@H](COP(=O)(O)OP(=O)(O)OP(=O)(O)Oc3ccccc3)[C@@H](O)[C@H]2O)c(=O)[nH]1 [Compound 33, N^4-Methoxycytidine-5′-phenyl-triphosphate triethylammonium salt]
- activity at the P2Y6 receptor (human P2Y6 receptor [3]; PLC activation): weakly activated
